# Source: US8163756B2 (priority 2004, dated 2012)
# What was measured:
# Format in all cases: biochemical
# KDR kinase = KDR kinase (Homo sapiens, UniProt P35968, DEL940-989/E990V); experiment: KDR kinase assay K1 (pyruvate kinase/lactate dehydrogenase coupled, spectrophotometric); details: Method K1; read-out: KDR Data (IC50)
# Description: (§1) IC50 values were calculated from a series of percent inhibition values determined at a range of inhibitor concentrations using software routines as implemented in the GraphPad Prism software package.
# B-Raf(V599E) kinase = B-Raf(V599E) kinase (Homo sapiens, UniProt P15056, V600E); experiment: B-Raf(V599E) kinase assay B1 (construct 1, MEK1 substrate, coupled spectrophotometric)
# Description: The test compounds were incubated with the reaction mixtureat 30° C. for 2 h. […] The reaction rate was calculated using the […] time frame. […] IC50 values were calculated from a series of percent inhibition values determined at a range of inhibitor concentrations using software routines as implemented in the GraphPad Prism software package.
# Abl kinase = target: T1, Abl kinase (Homo sapiens, UniProt P00519); experiment: Abl kinase assay A1 (pyruvate kinase/lactate dehydrogenase coupled, spectrophotometric); details: Method A1; read-out: Abl Data (IC50)
# T1 sequence (P00519 229-512): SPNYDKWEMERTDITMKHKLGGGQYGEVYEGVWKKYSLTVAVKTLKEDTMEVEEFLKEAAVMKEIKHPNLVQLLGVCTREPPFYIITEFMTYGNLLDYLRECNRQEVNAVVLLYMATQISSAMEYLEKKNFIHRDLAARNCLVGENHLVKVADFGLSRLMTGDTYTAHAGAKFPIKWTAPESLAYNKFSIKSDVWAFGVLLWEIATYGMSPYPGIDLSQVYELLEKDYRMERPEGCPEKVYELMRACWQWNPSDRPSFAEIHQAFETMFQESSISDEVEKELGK
# Description: as §1
# [1] = target: phosphorylated p-38-alpha kinase (Homo sapiens, UniProt Q16539); experiment: P-38 alpha kinase assay P1 (coupled spectrophotometric, 2 h pre-incubation); details: method P1 (2 h pre-incubation); read-out: P-38 Data
# Chain of phosphorylated p-38-alpha kinase (Q16539 1-360 isoform Q16539-2): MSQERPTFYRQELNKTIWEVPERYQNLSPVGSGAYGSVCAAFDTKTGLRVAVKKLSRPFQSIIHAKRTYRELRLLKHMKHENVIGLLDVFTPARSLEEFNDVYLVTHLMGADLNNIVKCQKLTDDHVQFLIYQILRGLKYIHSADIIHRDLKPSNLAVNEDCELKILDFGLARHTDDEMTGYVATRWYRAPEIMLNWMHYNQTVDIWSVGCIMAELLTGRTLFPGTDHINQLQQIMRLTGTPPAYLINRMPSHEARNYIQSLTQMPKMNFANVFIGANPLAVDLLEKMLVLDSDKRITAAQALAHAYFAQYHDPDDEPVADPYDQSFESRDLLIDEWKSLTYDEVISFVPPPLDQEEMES
# Chain of B-Raf(V599E) kinase (P15056 with tags, fused parts or gaps V600E): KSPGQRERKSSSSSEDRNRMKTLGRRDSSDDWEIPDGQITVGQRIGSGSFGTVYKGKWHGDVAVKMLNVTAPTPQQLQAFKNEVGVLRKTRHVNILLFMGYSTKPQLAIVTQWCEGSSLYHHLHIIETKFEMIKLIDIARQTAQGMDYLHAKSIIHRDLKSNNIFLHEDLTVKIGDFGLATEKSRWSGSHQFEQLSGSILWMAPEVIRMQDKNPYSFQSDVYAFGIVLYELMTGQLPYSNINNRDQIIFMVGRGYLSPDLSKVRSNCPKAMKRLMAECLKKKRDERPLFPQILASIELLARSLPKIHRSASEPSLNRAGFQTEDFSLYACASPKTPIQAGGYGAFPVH
# Chain of KDR kinase (P35968 with tags, fused parts or gaps DEL940-989/E990V): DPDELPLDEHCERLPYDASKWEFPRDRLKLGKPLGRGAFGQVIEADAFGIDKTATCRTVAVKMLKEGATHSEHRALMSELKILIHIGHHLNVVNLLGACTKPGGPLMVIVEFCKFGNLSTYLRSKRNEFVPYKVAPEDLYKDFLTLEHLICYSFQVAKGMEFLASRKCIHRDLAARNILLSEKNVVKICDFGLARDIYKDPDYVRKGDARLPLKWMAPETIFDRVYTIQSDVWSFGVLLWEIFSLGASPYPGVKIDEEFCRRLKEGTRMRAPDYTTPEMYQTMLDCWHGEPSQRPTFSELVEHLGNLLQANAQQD
SMILES,IC50 (KDR kinase) [nM],IC50 (B-Raf(V599E) kinase) [nM],IC50 (Abl kinase) [nM],IC50 [1] [nM]
"CC(C)(C)c1cc(NC(=O)Nc2ccc(Cl)cc2)n(-c2cc(CN)c3ccccc3c2)n1 [Example 68, 1-[1-(4-(aminomethyl)naphthalen-2-yl)-3-t-butyl-1H-pyrazol-5-yl]-3-(4-chlorophenyl)urea]",1400,24,,
"CC(=O)c1cc(-n2nc(C(C)(C)C)cc2NC(=O)Nc2cccc(Cl)c2Cl)cc2ccccc12 [Example 100, 1-(1-(4-acetylnaphthalen-2-yl)-3-t-butyl-1H-pyrazol-5-yl)-3-(2,3-dichlorophenyl)urea]",,6.9,150,5
"CC(C)(C)c1cc(NC(=O)Nc2cccc(C#N)c2)n(-c2ccc3c(c2)CCN3)n1 [Example 111, 1-(3-t-butyl-1-(indolin-5-yl)-1H-pyrazol-5-yl)-3-(3-cyanophenyl)urea]",,97,620,
"CC(C)(C)c1cc(NC(=O)Nc2cccc(Cl)c2Cl)n(-c2ccc3c(c2)N(S(C)(=O)=O)CC3)n1 [Example 113, 1-(3-t-butyl-1-(1-(methylsulfonyl)indolin-6-yl)-1H-pyrazol-5-yl)-3-(2,3-dichlorophenyl)urea]",,3.3,190,
"CC(C)(C)c1cc(NC(=O)Nc2cccc(C#N)c2)n(-c2ccc3c(c2)NCC3)n1 [Example 114, 1-(3-t-butyl-1-(indolin-6-yl)-1H-pyrazol-5-yl)-3-(3-cyanophenyl)urea]",,115,640,
"CC(C)(C)c1cc(NC(=O)Nc2ccc(Cl)cc2)n(-c2ccc3c(c2)CNCC3)n1 [Example 124, 1-[3-t-butyl-1-(1,2,3,4-tetrahydroisoquinolin-7-yl)-1H-pyrazol-5-yl]-3-(4-chloro-phenyl)urea]",,173,1400,
"CC(C)(C)c1cc(NC(=O)Nc2ccc(Cl)cc2)n(-c2ccc3c(c2)CN(C(=O)NS(C)(=O)=O)CC3)n1 [Example 128, N-(7-{3-t-butyl-5-[3-(4-chloro-phenyl)ureido]pyrazol-1-yl}-3,4-dihydro-1H-isoquinoline-2-carbonyl)methane-sulfonamide]",,67,7500,
"Cc1ccc(NC(=O)Nc2cc(C(C)(C)C)nn2-c2ccc3c(c2)CCNC3)cc1Nc1ncccn1 [Example 142, 1-(3-t-butyl-1-(1,2,3,4-tetrahydro-isoquinolin-6-yl)-1H-pyrazol-5-yl)-3-(4-methyl-3-(pyrimidin-2-ylamino)phenyl)-urea]",,35,170,
"CC(C)(C)c1cc(NC(=O)Nc2cccc(F)c2F)n(-c2ccc3c(c2)CCNC3)n1 [Example 144, 1-(3-t-butyl-1-(1,2,3,4-tetrahydroiso-quinolin-6-yl)-1H-pyrazol-5-yl)-3-(2,3-difluorophenyl)-urea]",,9.6,200,
"CC(C)(C)c1cc(NC(=O)Nc2ccc(F)cc2F)n(-c2ccc3c(c2)CCNC3)n1 [Example 145, 1-(3-t-butyl-1-(1,2,3,4-tetrahydroiso-quinolin-6-yl)-1H-pyrazol-5-yl)-3-(2,4-difluorophenyl)-urea]",,13,410,
"CC(C)(C)c1cc(NC(=O)Nc2ccc(F)c(F)c2F)n(-c2ccc3c(c2)CCNC3)n1 [Example 147, 1-(3-t-butyl-1-(1,2,3,4-tetrahydroiso-quinolin-6-yl)-1H-pyrazol-5-yl)-3-(2,3,4-trifluorophenyl)-urea]",,10,140,
"CC(C)(C)c1cc(NC(=O)Nc2cccc(Cl)c2Cl)n(-c2ccc3[nH]c(=O)ccc3c2)n1 [Example 155, 1-(3-t-butyl-1-(2-oxo-1,2-dihydroquinolin-6-yl)-1H-pyrazol-5-yl)-3-(2,3-dichlorophenyl)-urea]",,1.4,260,110
"CC(C)(C)c1cc(NC(=O)Nc2cccc(Cl)c2Cl)n(-c2cc(CCN)c3ccccc3c2)n1 [Example 193, 1-(1-(4-(2-aminoethyl)naphthalen-2-yl)-3-t-butyl-1H-pyrazol-5-yl)-3-(2,3-dichlorophenyl)urea]",,2.6,81,
"CC(C)(C)c1cc(NC(=O)Nc2cccc(Cl)c2Cl)n(-c2ccc3c(c2)CCN3S(=O)(=O)C(F)(F)F)n1 [Example 201, 1-(3-t-butyl-1-(1-(trifluoromethylsulfonyl)indolin-5-yl)-1H-pyrazol-5-yl)-3-(2,3-dichlorophenyl)urea]",130,,,150
"CC(C(=O)O)c1ccc(-n2nc(C(C)(C)C)cc2NC(=O)Nc2cccc(Cl)c2Cl)cc1 (stereo not shown) [Example 202, 2-(4-(3-t-butyl-5-(3-(2,3-dichlorophenyl)ureido)-1H-pyrazol-1-yl)phenyl)propanoic acid]",230,,,12
"CC(C(N)=O)c1ccc(-n2nc(C(C)(C)C)cc2NC(=O)Nc2cccc(Cl)c2Cl)cc1 (stereo not shown) [Example 203, 1-(1-(4-(1-amino-1-oxopropan-2-yl)phenyl)-3-t-butyl-1H-pyrazol-5-yl)-3-(2,3-dichlorophenyl)urea]",160,,,17

SMILES,IC50 (KDR kinase) [nM],IC50 (B-Raf(V599E) kinase) [nM],IC50 (Abl kinase) [nM],IC50 [1] [nM]
"CC(C)(C)c1cc(NC(=O)Nc2cc(F)c(F)cc2F)n(-c2cccc(C#N)c2)n1 [Example 207, 1-(3-t-butyl-1-(3-cyanophenyl)-1H-pyrazol-5-yl)-3-(2,4,5-trifluorophenyl)urea]",340,,,
"CC(C)(C)c1cc(NC(=O)Nc2cc(F)c(F)cc2F)n(-c2cccc(C(=N)N)c2)n1 [Example 214, 1-(3-t-butyl-1-(3-carbamimidoylphenyl)-1H-pyrazol-5-yl)-3-(2,4,5-trifluorophenyl)urea]",840,,,
"CC(C)(C)c1cc(NC(=O)Nc2cccc(F)c2F)n(-c2cccc(CO)c2)n1 [Example 220, 1-{3-t-butyl-1-[3-(hydroxymethyl)phenyl]-1H-pyrazol-5-yl}-3-(2,3-difluorophenyl)urea]",950,33,,
"CC(C)(C)c1cc(NC(=O)Nc2cccc(Cl)c2)n(-c2cccc(CN)c2)n1 [Example 227, 1-{1-[3-(aminomethyl)phenyl]-3-t-butyl-1H-pyrazol-5-yl}-3-(3-chloro-phenyl)urea]",9300,61,,
"CC(C)(C)c1cc(NC(=O)Nc2cccc(Cl)c2)n(-c2cccc(CCN)c2)n1 [Example 257, 1-{1-[3-(2-aminoethyl)phenyl]-3-t-butyl-1H-pyrazol-5-yl}-3-(3-chlorophenyl)urea]",6600,62,,
"CC(C)(C)c1cc(NC(=O)Nc2cccc(Cl)c2Cl)n(-c2cccc(-c3cccnc3)c2)n1 [Example 276, 1-[5-t-butyl-2-(3-pyridin-3-yl-phenyl)-2H-pyrazol-3-yl]-3-(2,3-dichlorophenyl)urea]",,4.9,2300,
"CC(C)(C)c1cc(NC(=O)Nc2ccccc2)n(-c2ccc3ncccc3c2)n1 [Example 282, 1-[3-t-butyl-1-(quinolin-6-yl)-1H-pyrazol-5-yl]-3-phenylurea]",2400,41,,
"CC(C)(C)c1cc(NC(=O)Nc2ccc(F)c(F)c2F)n(-c2ccc3ncccc3c2)n1 [Example 285, 1-(3-t-butyl-(quinolin-6-yl)-1H-pyrazol-5-yl)-3-(2,3,4-trifluorophenyl)urea]",380,5.1,,
CC(C)(C)c1cc(NC(=O)Nc2cc(F)cc(F)c2F)n(-c2cc(CNC(N)=O)c3ccccc3c2)n1 [Example 296],200,3,,
CC(C)(C)c1cc(NC(=O)Nc2cc(F)c(F)cc2F)n(-c2cc(CNC(N)=O)c3ccccc3c2)n1 [Example 297],270,3.2,,
"CC(C)(C)c1cc(NC(=O)Nc2cccc(F)c2F)n(-c2ccc3c(c2)CCN3)n1 [Example 307, 1-(3-t-butyl-1-(indolin-5-yl)-1H-pyrazol-5-yl)-3-(2,3-difluorophenyl)urea]",720,10,,
"CC(C)(C)c1cc(NC(=O)Nc2ccsc2)n(-c2ccc3c(c2)CCC(=O)N3)n1 [Example 316, 1-(3-t-butyl-1-(2-oxo-1,2,3,4-tetrahydro-quinolin-6-yl)-1H-pyrazol-5-yl)-3-(thiophen-3-yl)urea]",12900,66,,
"CC(C)(C)c1cc(NC(=O)NC2CCCCC2)n(-c2ccc3c(c2)CCC(=O)N3)n1 [Example 318, 1-(3-t-butyl-1-(2-oxo-1,2,3,4-tetrahydroquinolin-6-yl)-1H-pyrazol-5-yl)-3-cyclohexylurea]",10100,29,,
"CC(C)(C)c1cc(NC(=O)Nc2ccccc2)n(-c2ccc3c(c2)CCC(=O)N3)n1 [Example 319, 1-(3-t-butyl-1-(2-oxo-1,2,3,4-tetrahydro-quinolin-6-yl)-1H-pyrazol-5-yl)-3-phenylurea]",4300,32,,
"CC(C)(C)c1cc(NC(=O)Nc2cccc(Cl)c2Cl)n(-c2cccc(CC(=O)O)c2)n1 [Example 373, 2-(3-{3-t-butyl-5-[3-(2,3-dichlorophenyl)-ureido]-1H-pyrazol-1-yl}phenyl)acetic acid]",,3.2,3500,
CC(C)(C)c1cc(NC(=O)Nc2cccc(Cl)c2Cl)n(-c2ccc(CC(=O)N3CCS(=O)(=O)CC3)cc2)n1 [Example 495],1500,55,,
